The nature of data set [1]: Non-enzymatic hydrolysis of genistein esters in aqueous buffer (HPLC). Type of data set: physicochemical. The conditions noted are these: phosphate-buffered saline (0.1 M), pH 7.4, 37°, 10 days. The source says:
By way of example, and not of limitation, several embodiments of the inventive subject matter have been prepared and characterized. These examples all fall within the group of pro-compounds where at least one of R7, R6, R5 and R4′ is H2PO4—, and HOOC—(CH2)x-COO— where x=2, 3, or 4. These new phosphate esters and hemiesters are all water soluble and readily hydrolyzed. They are also stable. In aqueous solutions of the exemplified compounds, for example, hydrolysis occurs to the extent of less than 1% per day, when stored at pH 7.4 and 37° C. Dry formulations of the same compounds appear to be indefinitely stable.
HPLC analysis was conducted using a Partisil ODS-3 column (9.5×250 mm), with methanol as the mobile phase, and UV detection at 260 nm.
A solution of genistein-7-phosphate (2.5 mg) in 5 ml of phosphate-buffered saline (0.1 M) at pH 7.4 was incubated at 37° for 10 days.
A solution of genistein-7-hemisuccinate (2.5 mg) in 5 ml of phosphate-buffered saline (0.1 M) at pH 7.4 was incubated at 37° for 10 days.

The nature of data set [2]: Hydrolysis of genistein-7-phosphate to free genistein in human serum. Type of data set: in vitro ADME. The note with it: 37° C. How it is done: (§1) In each of these experiments, free genistein was extracted with a 1:1 mixture of ethyl acetate and hexane, then analyzed by HPLC under the conditions described in example 5.
a) In human serum (Sierra Biologicals) at 37° C., the half-life for hydrolysis to free genistein was about 5 hours.

Data set [3] deals with alkaline phosphatase type VII-S. The data set is described as follows: Hydrolysis by alkaline phosphatase type VII-S. The note with it: 37° C., 0.5 DEA units in 1.0 ml 0.1M glycine buffer pH 10.4, initial substrate 1.07 mM. Type of data set: biochemical, bovine. How it is done: as §1
d) In alkaline phosphatase type VII-S at 37° C., the initial rate of hydrolysis to free genistein was 0.08% per minute.
This enzyme from bovine intestinal mucosa (Sigma cat no. P5521). 0.5 DEA units were dissolved in 1.0 ml of 0.1M glycine buffer pH 10.4, and the initial substrate concentration was 1.07 mM.

Data set [4] can be described thus: Hydrolysis of genistein-7-phosphate to free genistein in human blood. Type of data set: in vitro ADME. The note with it: 37° C. The method, then: as §1
b) In human blood (Sierra Biologicals) at 37° C., the half-life for hydrolysis to free genistein was about 6 hours.

A short description of data set [5]: Hydrolysis of genistein-7-phosphate to free genistein in rat blood. Type of data set: in vitro ADME. The note with it: 37° C. The method, then: as §1
c) In rat blood (Sierra Biologicals) at 37° C., the half-life for hydrolysis to free genistein was about 30 minutes.

The target in data set [6] is alkaline phosphatase type XXIV (Homo sapiens, UniProt P05187). Put plainly: Hydrolysis by alkaline phosphatase type XXIV. The note with it: 37° C. Type of data set: biochemical. The method, then:
as §1
e) In alkaline phosphatase type XXIV at 37° C., the initial rate of hydrolysis to free genistein was 0.05% per minute.

The conditions of data set [7]: Merck Index descriptions; cited from earlier work.

Sequence of alkaline phosphatase type XXIV (P05187 23-506): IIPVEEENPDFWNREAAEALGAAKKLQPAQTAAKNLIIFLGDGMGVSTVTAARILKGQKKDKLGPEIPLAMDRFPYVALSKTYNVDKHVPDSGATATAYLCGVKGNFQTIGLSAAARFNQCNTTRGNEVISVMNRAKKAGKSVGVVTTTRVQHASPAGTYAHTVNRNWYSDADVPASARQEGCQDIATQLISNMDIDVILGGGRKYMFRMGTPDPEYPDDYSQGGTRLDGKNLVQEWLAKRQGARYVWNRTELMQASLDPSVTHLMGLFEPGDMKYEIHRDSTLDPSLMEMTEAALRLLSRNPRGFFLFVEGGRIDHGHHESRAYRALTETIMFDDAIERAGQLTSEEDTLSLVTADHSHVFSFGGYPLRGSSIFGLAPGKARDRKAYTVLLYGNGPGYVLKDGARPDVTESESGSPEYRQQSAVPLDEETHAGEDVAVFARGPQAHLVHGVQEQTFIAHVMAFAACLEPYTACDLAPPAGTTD

Turning to `O=C(O)CCC(=O)Oc1cc(O)c2c(=O)c(-c3ccc(O)cc3)coc2c1` [genistein-7-hemisuccinate, Genistein-7-Hemisuccinate], in data set [1], the “conversion of the ester to free genistein” value is given as “about 4%”.
As to `O=c1c(-c2ccc(O)cc2)coc2cc(OP(=O)(O)O)cc(O)c12` [genistein-7-phosphate, Genistein-7-Phosphate], the values for the half-life in data set [2], in data set [4] and in data set [5] were approximately 5 h, approximately 6 h and approximately 0.5 h, respectively. The “initial rate of hydrolysis to free genistein” value in data set [3] was determined as 0.08 % per minute; in data set [6], 0.05 % per minute. In addition, in data set [1], the “free genistein found by HPLC after incubation” value is given as “absence of free genistein”.
Consider `O=c1c(-c2ccc(O)cc2)coc2cc(O)cc(O)c12` [genistein], for which, in data set [7], the solubility in water result is listed as “very insoluble”.

For orientation: half-life means the time needed for the level to fall by half in the phase considered. Read a high half-life as slow decline.

Source of the values: US6958156B2, “Isoflavone derivatives” (Vyrex Corporation, priority 2000, dated 2005).
